One assay deals with T1, PKA (Bos taurus, UniProt P00517).
T1 construct: 0.5 μg PKA (from bovine heart supplied by Sigma, St. Louis, Mo.); purchased Sigma, St. Louis, Mo; host or cells: bovine heart tissue
Briefly: PKA activity assay. Type of assay: biochemical, bovine. As to the method:
RhPKCβ2 was expressed in a baculovirus expression system. Kinase reactions were conducted in 50 μl comprising 0.5 μg rhPKC diluted in 2 mM Tris, and 100 μM EGTA and reaction buffer comprising substrate (0.9 mM EGTA, 1.1 mM CaCl2, 0.01 mg/ml glycogen synthase peptide (H-[…]OH) (Bachem, King of Prussia, Pa.), 40 μg/ml L-α-Phosphatidyl-L-serine, 1 μg/ml 1,3-Diolen, 10 mM MgCl2, pH 7.5). To assess PKA activity, kinase reactions were conducted in 50 μl comprising 0.5 μg PKA (from bovine heart supplied by Sigma, St. Louis, Mo.) diluted in 10 mM MOPS, pH 6.5 and reaction buffer comprising substrate (50 mM MOPS, pH 6.5, 10 mM MgCl2, 0.1 mg/ml Histone-IIA (Sigma, St. Louis, Mo.), 1 μM cAMP). An ATP solution (0.01 μM ATP and 0.5 μCi of [γ^33-P] ATP) was then added to the wells in both assay systems. Inhibitors were added at the indicated concentrations with a final DMSO concentration of 10%. Reactions were allowed to proceed for 20 minutes at 37° C. and were stopped with 25 mM EDTA. The reactions were spotted onto filter paper, washed four times in a beaker comprising 75 mM phosphoric acid and rinsed with acetone. Filters were dried and put in scintillation vials with fluid and counted.

In the next assay the test system is Jurkat T cells. Briefly: Apoptosis assay (TUNEL, flow cytometry). Type of assay: cell-based. Conditions: 3 μM, 24 hours. The method, then: To determine the mechanism behind the ability of SCY to inhibit cell proliferation, about 2×10^5 Jurkat T cells/ml were treated with vehicle (negative control), 3 μM SCY, or 3 μM camptothecin (positive control) a (0.1% DMSO[final]) and incubated at 37° C., 5% CO2 for 24 hours. As a positive control, camptothecin, a DNA topoisomerase inhibitor, was used because of its ability to arrest Jurkat cells at the G2/M phase of the cell cycle and induce the cells to undergo apoptosis. The cells were fixed in 1% paraformaldehyde, washed once with PBS, and stored in 70% EtOH at−20° C. Apoptosis was measured using the Promega Apoptosis Detection System (Promega, Madison, Wis.) an adapted TUNEL staining method.
The cells were washed two times with 5 ml PBS 2% FBS, then transferred to a microcentrifuge tube in 1 ml PBS, 0.2% Triton×100, 5 mg/ml BSA and incubated on ice for 5 minutes. Samples were spun, PBS solution removed, then resuspended in 80 μl equilibration buffer from Promega kit and incubated at room temperature for 10 minutes. Then the samples were spun and the equilibration buffer removed. A nucleotide mix comprising 45 μl equilibration buffer, 5 μl nucleotide mix, 1 μl Tdt enzyme per sample, was used to resuspend each sample in the dark. The cells were incubated in the dark at 37° C. for 1 hour. The reaction was terminated by the addition of 20 mM EDTA. The samples were washed twice with 1 ml RNAse A and a small aliquot, about 50 μl, was viewed under a microscope. Cells were stained with fluoroscein and then counterstained with propidium iodide and analyzed for DNA content and fragmentation using a Becton-Dickinson FacsSort (Becton-Dickinson, San Jose, Calif.).

The subject of assay [1] is PMA-induced mouse ear edema. As to the kind of experiment: PMA-induced mouse ear edema assay. Type of assay: in vivo. Particulars: topical application. As to the method:
The efficacy of a scytoneman compound as an anti-inflammatory agent may be established by the following assay. The scytoneman compound is topically applied in acetone to the inside pinnae of the ears of mice in a solution comprising an irritant such as the edema-causing irritant, Phorbol 12-myristate 13-acetate (PMA). Specifically, 2 μg/ear of PMA alone or in combination with 50 μg/ear of the test compound, scytonemin, was applied to the left ears (5 mice per treatment group) and acetone was applied to all right ears. After 3 hours, 20 minutes incubation, the mice were sacrificed, the ears removed and bores taken and weighed. Edema was measured by subtracting the weight of the right ear (acetone control) from the weight of the left ear (treated). Results were recorded as % decrease (inhibition) or % increase (potentiation) in edema relative to the PMA control group edema.

In assay [2] the test system is CAP-induced mouse ear edema. As to the kind of experiment: Capsaicin (CAP)-induced mouse ear edema assay. Type of assay: in vivo. The method, then:
Various dilutions of test compounds were topically applied in acetone to the inside and outside surfaces of the left ears of mice in a solution comprising 0.1 μg RTX or 250 μg CAP per ear. A control, acetone, was applied to all right ears. After a 30 minute incubation, the mice were sacrificed, the ears removed, and bores taken and weighed.
For systemic studies, the test compounds were administered by intraperitoneal injection in a vehicle comprising 20% propylene glycol, 80% saline and 3 drops TWEEN-20 30 minutes or 1 hour prior to topical application of RTX or CAP. Control animals were injected with vehicle only. 0.1 μg RTX or 250 μg CAP was applied to the left ears and acetone was applied to the right ears. After 30 minutes of incubation, the mice were scarified, ears removed and bores taken and weighed.
Edema was measured by subtracting the weight of the right ear (control) from the weight of the left ear. The results were recorded as % decrease (inhibition) or % increase (potentiation) in edema relative to the control group edema.

Assay [3] has as its system PMA-induced mouse ear skin hyperplasia. Briefly: Tissue hyperplasia assay (PMA-induced mouse ear skin hyperplasia). Type of assay: in vivo.
Experimental: To determine the in vivo efficacy of syctonemin, PMA-induced mouse ear skin hyperplasia model was used. As one cause of tissue hyperplasia is chronic inflammation, mouse ear skin was exposed to multiple PMA applications to simulate chronic inflammation. Specifically, 0.125, 0.25, 0.5, or 1.0 mg of scytonemin in 20 μl of 20% DMSO and 80% acetone was applied to the inner pinnae of the left ears of male, Swiss Webster mice (Taconic Farms, Germantown, N.Y.) at 0, 5, 24, 29, 48, and 53 hours. The inner pinnae of the right ears received only 10 μl of vehicle and 10 μl of acetone at 0, 5, 24, 29, 48, and 53 hours. At 0.5 and 48.5 hours, 4 μg/ear PMA (Sigma, St. Louis, Mo.) in 10 μl acetone was applied to the inner pinnae the left ears and 10 μl acetone was applied to each right ear. One hour after the last scytonemin application (54 hours) each mouse was injected with 0.6 ml of a solution containing IUdR (2 μCi-I^125/mouse) and 26 μg FUdR. This IUdR/FUdR solution was made up in RPMI 1640 media. At 72 hours, the mice were euthanized via CO2 inhalation, the ears were excised and soaked individually in a 70% EtOH solution overnight.
At 96 hours, IUdR incorporation was then measured using a Beckman Gamma counter, Model 5500B. […] IUdR incorporated was calculated by the following equation: % IUdR incorporation=(Count of Ear−Background)/(Total Count−Background). The percent of control of IUdR incorporation was calculated by the following equation: % Control=(% IUdR Uptake in Sample Ear)/(% IUdR Uptake PMA−Treated Control Ear)×100.
Alternatively, the cyrosections of the mouse ears were stained and histologically analyzed. […]
At 72 hours, the mice were euthanized and the ears were immediately embedded in a suitable hypoxy resin such as OCT media and snap frozen using melting isopentane using conventional methods. […] The sections were fixed and stained with hematoxlin and then analyzed under a microscope with a 10× magnification.
Another assay deals with LPS-stimulated monocytes. Briefly: Proinflammatory mediator production in LPS-stimulated monocytes. Type of assay: cell-based.

These results are taken from US6495588B2, “Scytonemin and methods of using thereof” (The Regents of the University of California, priority 2000, dated 2002).

Some results are limits rather than exact numbers.

Consider scytonemin, for which the IC50 (usually the point on the concentration scale where inhibition reaches its midpoint) against PKA was above 10 µM. Also, on PKA (0.01 μM ATP), the “concentration at which PKA activity is significantly affected or inhibited” value is at least 10 µM. For the same substance, in the assay with Jurkat T cells, the “effect on cell cycle progression” value was “did not have any cell cycle specific effect” and the “induction of apoptosis (DNA fragmentation)” value is “cause the cells to undergo apoptosis in all phases of the cell cycle”. Moreover, the “ED50 PMA-induced mouse ear edema and tissue myeloperoxidase activity” value in assay [1] is “about 10.9±5 μg per ear”. The inhibition of edema result in assay [2] (systemic 10 mg/kg, 30 minutes before topical CAP) was “no inhibition of edema”. In addition, in assay [2] (topical 500 μg/ear against 250 μg/ear CAP), the inhibition of edema is on record as around 24%. The “thickness of the epidermal layer” value in assay [3] (PMA-treated mouse ears) was “reduced the thickness of the epidermal layer”. The “tissue hyperplasia (histology, hematoxlin)” value in assay [3] (scytonemin 1 mg/ear, dexamethasone 0.15 mg/ear, PMA 4 μg/ear) is given as “to about normal”. The “ED50 skin hyperplasia (IUdR incorporation)” value in assay [3] (topical) was “about 0.270±0.11 mg/ear”. For the same substance, in the assay with LPS-stimulated monocytes, the IL-1β production result is on record as “reduces”, the PGE2 production result is “reduces” and the TNFα production entry is listed as “reduces”.
